In paper PMC6792352, “Limited Chemical Structural Diversity Found to Modulate Thyroid Hormone Receptor in the Tox21 Chemical Library” (Environmental Health Perspectives, 2019):
Structures can show the parent of a compound that is named as a salt.

Assay: in vitro
Settings: rat, gh3-tre-luc cells, AC50 (uM) modified / 1000
`Cc1c(N)nc([C@H](CC(N)=O)NC[C@H](N)C(N)=O)nc1C(=O)N[C@H](C(=O)N[C@H](C)[C@@H](O)[C@H](C)C(=O)N[C@H](C(=O)NCCc1nc(-c2nc(C(=O)NCCCN[C@@H](C)c3ccccc3)cs2)cs1)[C@@H](C)O)[C@@H](O[C@@H]1O[C@@H](CO)[C@@H](O)[C@H](O)[C@@H]1O[C@H]1O[C@H](CO)[C@@H](O)[C@H](OC(N)=O)[C@@H]1O)c1c[nH]cn1` [Peplomycin sulfate] showed a CC50 at 24 h of 2.77 µM.
`O=C1[C@@H]2[C@H]3CC[C@H](C3)[C@@H]2C(=O)N1CCCCN1CCN(c2ncccn2)CC1` [Tandospirone] gave a CC50 at 24 h of over 50 µM.
In the case of `CC[N+](CC)(CCNC(=O)C(=O)NCC[N+](CC)(CC)Cc1ccccc1Cl)Cc1ccccc1Cl` [Ambenonium chloride], the CC50 at 24 h was over 50 µM.
For `O=C1OC2(c3ccc(O)cc3Oc3cc(O)ccc32)c2ccccc21` [Fluorescein], the CC50 at 24 h was over 50 µM.
Work on `ClC1C(Cl)C(Cl)C(Cl)C(Cl)C1Cl` (stereo not drawn) [alpha-1,2,3,4,5,6-Hexachlorocyclohexane] yielded a CC50 at 24 h of over 90 µM.
In the case of `OCCCCC(O)CO` (stereo not shown) [1,2,6-Hexanetriol], the CC50 at 24 h was over 90 µM.
Compound `C[C@@H]1CN(c2c(F)c(N)c3c(=O)c(C(=O)O)cn(C4CC4)c3c2F)C[C@H](C)N1` [Sparfloxacin] has a CC50 at 24 h of over 50 µM.
`O=C(Nc1ccc(F)cc1F)c1cccnc1Oc1cccc(C(F)(F)F)c1` [Diflufenican] showed a CC50 at 24 h of over 100 µM.
`O=C(CC(=O)C(F)(F)F)c1ccccc1` [4,4,4-Trifluoro-1-phenyl-1,3-butanedione] showed a CC50 at 24 h of over 90 µM.
`COc1c(N2CCNC(C)C2)c(F)cc2c(=O)c(C(=O)O)cn(C3CC3)c12` (stereo not shown) [Gatifloxacin] gave a CC50 at 24 h of over 50 µM.
For `CC(C)(C)c1ccc(CN2CCN(C(c3ccccc3)c3ccc(Cl)cc3)CC2)cc1` (stereo not shown) [Buclizine dihydrochloride], the CC50 at 24 h was 32.6 µM.
`CCN1CCc2nc(N)oc2CC1` [Azepexole hydrochloride] showed a CC50 at 24 h of over 50 µM.
Work on `CNC(C)=O` [N-Methylacetamide] yielded a CC50 at 24 h of over 90 µM.
Compound `C=CCOCC1CO1` (stereo not shown) [Allyl glycidyl ether] has a CC50 at 24 h of over 90 µM.
`CCCCCCCC(=O)OCC(COC(=O)CCCCCCC)OC(=O)CCCCCCC` [Tricaprylin] showed a CC50 at 24 h of over 90 µM.
Work on `CC(=O)/C=C/[C@H]1C(C)=CC[C@@H](C)C1(C)C` [alpha-Irone] yielded a CC50 at 24 h of over 90 µM.
Work on `CCC1(C)CC(=O)NC1=O` (stereo not shown) [Ethosuximide] yielded a CC50 at 24 h of over 50 µM.
With `CCCc1ccccc1` [Propylbenzene] the CC50 at 24 h was over 90 µM.
`O=S(=O)(Cl)c1c(Cl)cccc1Cl` [2,6-Dichlorobenzenesulfonylchloride] showed a CC50 at 24 h of over 90 µM.
`C=CCCCC` [1-Hexene] gave a CC50 at 24 h of over 100 µM.
Work on `CCOc1ccc(S(=O)(=O)O)c2cccnc12` [Actinoquinol] yielded a CC50 at 24 h of over 50 µM.
`CCCCCNC(=N)N/N=C/c1c[nH]c2ccc(OC)cc12` [Tegaserod] gave a CC50 at 24 h of over 50 µM.
`Cc1ccc2oc(=O)ccc2c1` [6-Methyl coumarin] showed a CC50 at 24 h of over 90 µM.
`Nc1nc2ncc(CNc3ccc(C(=O)N[C@@H](CCC(=O)O)C(=O)O)cc3)nc2c(=O)[nH]1` [Folic acid] gave a CC50 at 24 h of over 90 µM.
In the case of `C[C@@H](O)C(=O)O` [D-Lactic acid], the CC50 at 24 h was over 100 µM.
With `CNC(C)CCC=C(C)C` (stereo not shown) [Isometheptene hydrochloride] the CC50 at 24 h was over 50 µM.
Work on `CCn1cc[n+](C)c1` [1-Ethyl-3-methylimidazolium thiocyanate] yielded a CC50 at 24 h of over 90 µM.
`Cc1cscn1` [4-Methylthiazole] showed a CC50 at 24 h of over 90 µM.
Compound `CC(=O)c1cc(C)oc1C` [3-Acetyl-2,5-dimethylfuran] has a CC50 at 24 h of over 90 µM.
Compound `COc1ccc2c(c1)c(CC(=O)OCC(=O)O)c(C)n2C(=O)c1ccc(Cl)cc1` [Acemetacin] has a CC50 at 24 h of over 50 µM.
In the case of `O=C(N/N=C/c1ccc([N+](=O)[O-])o1)c1ccc(O)cc1` [Nifuroxazide], the CC50 at 24 h was over 20 µM.
`CN1C(=O)[C@@H](NC(=O)c2cc3ccccc3[nH]2)N=C(c2ccccc2)c2ccccc21` [Devazepide] gave a CC50 at 24 h of over 50 µM.
In the case of `COc1c(C)c2c(c(O)c1C/C=C(\C)CCC(=O)O)C(=O)OC2` [Mycophenolic acid], the CC50 at 24 h was 1.55 µM.
Work on `C=CCOc1nc(OCC=C)nc(OCC=C)n1` [2,4,6-Tris(allyloxy)-1,3,5-triazine] yielded a CC50 at 24 h of over 90 µM.
`CCC(=O)OCC(=O)[C@@]1(OC(=O)CC)[C@@H](C)C[C@H]2[C@@H]3CCC4=CC(=O)C=C[C@]4(C)[C@@]3(Cl)[C@@H](O)C[C@@]21C` [Beclazone] gave a CC50 at 24 h of over 50 µM.
`c1ccc(CCCc2ccncc2)cc1` [4-(3-Phenylpropyl)pyridine] gave a CC50 at 24 h of over 90 µM.
`C=CCCCCCCCCO` [9-Decen-1-ol] gave a CC50 at 24 h of over 90 µM.
Work on `CN(C)CCC#N` [3-Dimethylaminopropionitrile] yielded a CC50 at 24 h of over 90 µM.
With `C=CC1CC2C=CC1C2` (stereo not shown) [5-Vinyl-2-norbornene] the CC50 at 24 h was over 90 µM.
`CCCc1nc(C)c2c(=O)[nH]c(-c3cc(S(=O)(=O)N4CCN(CC)CC4)ccc3OCC)nn12` [Vardenafil citrate] gave a CC50 at 24 h of over 50 µM.
In the case of `CCCCCCCCCCCCCCC(=O)O` [Pentadecanoic acid], the CC50 at 24 h was over 90 µM.
Compound `C=C(C)C(=O)OCC1CCCO1` (stereo not shown) [Tetrahydrofurfuryl methacrylate] has a CC50 at 24 h of over 90 µM.
With `CCCCCCCC(=O)CC[C@@H]1[C@@H](C/C=C\CCCC(=O)OC(C)C)[C@@H](O)C[C@H]1O` [Unoprostone isopropyl ester] the CC50 at 24 h was 18 µM.
For `CCc1oc2ccccc2c1C(=O)c1cc(I)c(O)c(I)c1` [Benziodarone], the CC50 at 24 h was 24.8 µM.
Compound `OCC#CCO` [2-Butyne-1,4-diol] has a CC50 at 24 h of over 90 µM.
Compound `CC1=CCC(=C(C)C)CC1` [Terpinolene] has a CC50 at 24 h of over 90 µM.
`CNCCC(Oc1ccc(C(F)(F)F)cc1)c1ccccc1` (stereo not shown) [Fluoxetine hydrochloride] gave a CC50 at 24 h of 10.3 µM.
For `O=C(C[C@H]1NCCC[C@@H]1O)Cn1cnc2cc(Br)c(Cl)cc2c1=O` (racemic) [Halofuginone hydrochloride], the CC50 at 24 h was over 50 µM.
`CN1C(C)(C)CCCC1(C)C` [Pempidine d-tartaric acid] showed a CC50 at 24 h of over 50 µM.
`C#CCN1CC(=O)N(COC(=O)C2C(C=C(C)C)C2(C)C)C1=O` (stereo not shown) [Imiprothrin] showed a CC50 at 24 h of over 50 µM.
In the case of `N=C(N)c1ccc(OCCCOc2ccc(C(=N)N)cc2)cc1` [Propamidine], the CC50 at 24 h was over 50 µM.
`CCCCCC` [n-Hexane] showed a CC50 at 24 h of over 90 µM.
Work on `COc1ccc(C(CN(C)C)C2(O)CCCCC2)cc1` (stereo not shown) [Venlafaxine hydrochloride] yielded a CC50 at 24 h of over 90 µM.
`CCCCCCCOC(C)=O` [Heptyl acetate] showed a CC50 at 24 h of over 90 µM.
Work on `C[C@H]1[C@H](OC(=O)CCC(=O)O)O[C@@H]2O[C@@]3(C)CC[C@H]4[C@H](C)CC[C@@H]1[C@@]24OO3` [Artesunate] yielded a CC50 at 24 h of 2.69 µM.
`O=C(O)COc1ccc(C(=O)c2cccs2)c(Cl)c1Cl` [Ticrynafen] showed a CC50 at 24 h of over 50 µM.
With `CCCCN1CCCC[C@H]1C(=O)Nc1c(C)cccc1C` [Levobupivacaine hydrochloride] the CC50 at 24 h was over 50 µM.
With `CCNc1nc(NC(C)C)nc(SC)n1` [Ametryn] the CC50 at 24 h was over 90 µM.
Compound `O=C(O)c1ccc(NC(=O)[C@H](Cc2ccc(O)cc2)NC(=O)c2ccccc2)cc1` [Bentiromide sodium] has a CC50 at 24 h of over 50 µM.

Same assay, conditions: rat, gh3-tre-luc cells, AC50 (uM) modified / 1000, Tox21_110001=Tox21_112759; viability, 1 nM T3 present, 24 h
With `S=C(S)N1CCNCC1` [1-Piperazinecarbodithioic acid] the CC50 at 24 h was over 50 µM.

Same assay, conditions: rat, gh3-tre-luc cells, AC50 (uM) modified / 1000, Tox21_110001=Tox21_112818; viability, 1 nM T3 present, 24 h
With `C[C@H]1N=C(N)O[C@H]1c1ccccc1` (stereo in doubt) [(4R,5S)-4-methyl-5-phenyl-4,5-dihydro-1,3-oxazol-2-amine] the CC50 at 24 h was over 90 µM.

Same assay, conditions: rat, gh3-tre-luc cells, AC50 (uM) modified / 1000, Tox21_110001=Tox21_112864; viability, 1 nM T3 present, 24 h
For `CCN[C@@H](C)Cc1cccc(C(F)(F)F)c1` [Dexfenfluramine hydrochloride], the CC50 at 24 h was over 90 µM.

Same assay, conditions: rat, gh3-tre-luc cells, AC50 (uM) modified / 1000, Tox21_110001=Tox21_200790; viability, 1 nM T3 present, 24 h
In the case of `ClCBr` [Bromochloromethane], the CC50 at 24 h was over 100 µM.

Same assay, conditions: rat, gh3-tre-luc cells, AC50 (uM) modified / 1000, Tox21_110001=Tox21_301598; viability, 1 nM T3 present, 24 h
With `CC(=O)/C=C/c1ccccc1` [Methyl trans-styryl ketone] the CC50 at 24 h was over 90 µM.
